The target of this experiment is T1, mouse TRPM3α2 (mTRPM3) ion channel (Mus musculus, UniProt J9SQF3).
T1 construct: expressed in transfected cells; host or cells: flip-in HEK293
T1 sequence (J9SQF3 1-1709 isoform J9SQF3-12): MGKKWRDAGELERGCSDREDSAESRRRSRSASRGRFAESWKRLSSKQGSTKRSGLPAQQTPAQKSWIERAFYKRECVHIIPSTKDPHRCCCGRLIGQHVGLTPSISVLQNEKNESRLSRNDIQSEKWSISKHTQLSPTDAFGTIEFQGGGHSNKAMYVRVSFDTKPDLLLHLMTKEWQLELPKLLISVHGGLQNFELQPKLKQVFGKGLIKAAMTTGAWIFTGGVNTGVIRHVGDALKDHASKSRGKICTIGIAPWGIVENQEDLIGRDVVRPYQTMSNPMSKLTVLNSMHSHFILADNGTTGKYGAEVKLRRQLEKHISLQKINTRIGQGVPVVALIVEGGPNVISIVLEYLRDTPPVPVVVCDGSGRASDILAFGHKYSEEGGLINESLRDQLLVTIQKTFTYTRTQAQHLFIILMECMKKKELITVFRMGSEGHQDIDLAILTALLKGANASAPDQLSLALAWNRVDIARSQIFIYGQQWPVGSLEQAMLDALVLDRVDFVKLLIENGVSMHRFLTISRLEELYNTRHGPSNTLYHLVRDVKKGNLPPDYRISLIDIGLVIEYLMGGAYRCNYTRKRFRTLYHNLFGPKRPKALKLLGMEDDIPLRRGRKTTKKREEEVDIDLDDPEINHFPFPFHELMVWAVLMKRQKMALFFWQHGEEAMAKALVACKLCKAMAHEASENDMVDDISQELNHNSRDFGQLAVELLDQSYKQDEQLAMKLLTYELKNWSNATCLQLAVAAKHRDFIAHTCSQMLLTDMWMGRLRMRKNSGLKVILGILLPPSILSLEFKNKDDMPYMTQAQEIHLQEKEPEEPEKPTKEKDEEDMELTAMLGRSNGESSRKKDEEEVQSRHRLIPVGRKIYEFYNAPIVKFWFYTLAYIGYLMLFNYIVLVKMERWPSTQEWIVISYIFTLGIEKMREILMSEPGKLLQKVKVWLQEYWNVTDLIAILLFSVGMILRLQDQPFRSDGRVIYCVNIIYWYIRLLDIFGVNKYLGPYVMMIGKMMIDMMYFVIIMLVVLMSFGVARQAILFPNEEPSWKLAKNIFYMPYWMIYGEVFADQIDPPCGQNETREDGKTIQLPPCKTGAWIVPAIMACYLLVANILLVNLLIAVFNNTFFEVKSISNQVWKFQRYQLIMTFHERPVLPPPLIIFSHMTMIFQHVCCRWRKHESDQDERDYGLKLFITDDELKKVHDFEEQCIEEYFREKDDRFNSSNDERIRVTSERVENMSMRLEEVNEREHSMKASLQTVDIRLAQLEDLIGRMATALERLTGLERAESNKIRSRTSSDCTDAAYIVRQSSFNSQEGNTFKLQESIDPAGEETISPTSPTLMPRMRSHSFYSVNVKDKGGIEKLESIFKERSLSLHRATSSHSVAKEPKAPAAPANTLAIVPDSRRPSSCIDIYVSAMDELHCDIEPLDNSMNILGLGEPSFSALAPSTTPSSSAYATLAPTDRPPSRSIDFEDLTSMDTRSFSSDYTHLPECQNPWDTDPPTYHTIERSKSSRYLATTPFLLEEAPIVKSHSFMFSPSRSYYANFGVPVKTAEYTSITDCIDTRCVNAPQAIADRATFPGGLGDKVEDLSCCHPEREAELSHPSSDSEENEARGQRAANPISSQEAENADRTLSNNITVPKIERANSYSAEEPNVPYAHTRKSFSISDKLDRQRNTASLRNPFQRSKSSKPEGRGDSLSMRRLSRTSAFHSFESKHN
The experiment can be described thus: TRPM3 ion channel driven Ca2+ uptake, Fluo-4 AM assay, mTRPM3alpha2 overexpressing flip-in HEK293 cells stimulated with pregnenolone sulfate (50 μM). Format: cell-based. The note with it: mTRPM3 overexpressing HEK293 cells stimulated with pregnenolone sulfate (50 μM), activity ranges A, B, C. The method, boiled down:
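Flip-in HEK293 cells overexpressing mTRPM3α2, loaded with Fluo-4 AM, added at ±2000 cells/well to plates holding compound plus 50 μM pregnenolone sulfate in Ca2+-containing Krebs buffer. Fluorescence (ex 485/em 535 nm) read immediately. Percent inhibition normalised between vehicle and positive-control inhibitor; IC50 derived.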
In the case of `Cn1nccc1COc1ccc2nn(C)c(C(=O)NC3(CO)CC3)c2c1` [Cpd 067, N-[1-(hydroxymethyl)cyclopropyl]-2-methyl-5-[(1-methyl-1H-pyrazol-5-yl)methoxy]-2H-indazole-3-carboxamide], the IC50 (in general, the concentration at which inhibition is half-maximal) is above 20 µM.

`Cn1nc2ccc(OCc3cccnc3C(F)(F)F)cc2c1C(=O)NCC(C)(C)N1CCOCC1` [Cpd 068, 2-methyl-N-[2-methyl-2-(morpholin-4-yl)propyl]-5-{[2-(trifluoromethyl)pyridin-3-yl]methoxy}-2H-indazole-3-carboxamide] had a concentration for half-maximal inhibition (IC50) of 1 to 20 µM.

Consider `Cn1nccc1COc1ccc2nn(C)c(C(=O)NCC3CCC(=O)N3)c2c1` (stereo not drawn) [Cpd 069, 2-methyl-5-[(1-methyl-1H-pyrazol-5-yl)methoxy]-N-[(5-oxopyrrolidin-2-yl)methyl]-2H-indazole-3-carboxamide], for which the IC50 is above 20 µM.

In turn, `Cc1ncsc1COc1ccc2nn(C)c(C(=O)NC3(C(N)=O)CCC3)c2c1` [Cpd 070, N-(1-carbamoylcyclobutyl)-2-methyl-5-[(4-methyl-1,3-thiazol-5-yl)methoxy]-2H-indazole-3-carboxamide] showed an IC50 below 1 µM.

With `CN1CCC(NC(=O)c2c3cc(OCc4ccnn4C)ccc3nn2C)C1` (stereo not drawn) [Cpd 071, 2-methyl-5-[(1-methyl-1H-pyrazol-5-yl)methoxy]-N-(1-methylpyrrolidin-3-yl)-2H-indazole-3-carboxamide], the IC50 was in the range of 1 to 20 µM.

Turning to `Cc1ncsc1COc1ccc2nn(C)c(C(=O)NCC3(N(C)C)CCC3)c2c1` [Cpd 072, N-{[1-(dimethylamino)cyclobutyl]methyl}-2-methyl-5-[(4-methyl-1,3-thiazol-5-yl)methoxy]-2H-indazole-3-carboxamide], the IC50 lay in the range of 1 to 20 µM.

`Cn1nc2ccc(OCc3cccnc3C(F)(F)F)cc2c1C(=O)NCCN1CCOC1=O` [Cpd 073, 2-methyl-N-[2-(2-oxo-1,3-oxazolidin-3-yl)ethyl]-5-{[2-(trifluoromethyl)pyridin-3-yl]methoxy}-2H-indazole-3-carboxamide] had an IC50 of 1 to 20 µM.

`Cn1nc2ccc(OCc3ccccc3)cc2c1C(=O)NC1(CO)CCOCC1` [Cpd 074, 5-(benzyloxy)-N-[4-(hydroxymethyl)oxan-4-yl]-2-methyl-2H-indazole-3-carboxamide] displayed a half-maximal inhibitory concentration (IC50) of 1 to 20 µM.

For `Cc1ncsc1COc1ccc2nn(C)c(C(=O)NC3CCN(C)C3)c2c1` (stereo not drawn) [Cpd 075, 2-methyl-5-[(4-methyl-1,3-thiazol-5-yl)methoxy]-N-(1-methylpyrrolidin-3-yl)-2H-indazole-3-carboxamide], the IC50 fell in the range of 1 to 20 µM.

For the compound `Cn1nc2ccc(OCc3cccnc3C(F)(F)F)cc2c1C(=O)NC(C)(C)CO` [Cpd 076, N-(1-hydroxy-2-methylpropan-2-yl)-2-methyl-5-{[2-(trifluoromethyl)pyridin-3-yl]methoxy}-2H-indazole-3-carboxamide], the IC50 fell in the range of 1 to 20 µM.

`Cn1nc2ccc(OCc3cccnc3C(F)(F)F)cc2c1C(=O)NC1CCN(CC(F)(F)F)C1` (stereo not drawn) [Cpd 077, 2-methyl-N-[1-(2,2,2-trifluoroethyl)pyrrolidin-3-yl]-5-{[2-(trifluoromethyl)pyridin-3-yl]methoxy}-2H-indazole-3-carboxamide] showed an IC50 of 1 to 20 µM.

In the case of `CN(C)C1(CNC(=O)c2c3cc(OCc4ccccc4)ccc3nn2C)CCC1` [Cpd 078, 5-(benzyloxy)-N-{[1-(dimethylamino)cyclobutyl]methyl}-2-methyl-2H-indazole-3-carboxamide], the IC50 fell in the range of 1 to 20 µM.

In the case of `Cn1nccc1COc1ccc2nn(C)c(C(=O)NC3(CCO)CCC3)c2c1` [Cpd 079, N-[1-(2-hydroxyethyl)cyclobutyl]-2-methyl-5-[(1-methyl-1H-pyrazol-5-yl)methoxy]-2H-indazole-3-carboxamide], the IC50 is above 20 µM.

In turn, `CN1CC(NC(=O)c2c3cc(OCc4cccnc4C(F)(F)F)ccc3nn2C)C(F)(F)C1` (stereo not drawn) [Cpd 081, N-(4,4-difluoro-1-methylpyrrolidin-3-yl)-2-methyl-5-{[2-(trifluoromethyl)pyridin-3-yl]methoxy}-2H-indazole-3-carboxamide] came in with an IC50 of 1 to 20 µM.

Consider `C[C@H](NC(=O)c1c2cc(OCc3ccccn3)ccc2nn1C)C(N)=O` [Cpd 082, (2S)-2-({2-methyl-5-[(pyridin-2-yl)methoxy]-2H-indazol-3-yl}formamido)propanamide], for which the IC50 was 1 to 20 µM.

In turn, `C[C@@H](NC(=O)c1c2cc(OCc3ccccn3)ccc2nn1C)C(N)=O` [Cpd 083, (2R)-2-({2-methyl-5-[(pyridin-2-yl)methoxy]-2H-indazol-3-yl}formamido)propanamide] displayed an IC50 of 1 to 20 µM.

On to `CN1CCC(NC(=O)c2c3cc(OCc4ccccn4)ccc3nn2C)CC1` [Cpd 084, 2-methyl-N-(1-methylpiperidin-4-yl)-5-[(pyridin-2-yl)methoxy]-2H-indazole-3-carboxamide], for which the IC50 was in the range of 1 to 20 µM.

Regarding `Cn1nc2ccc(OCc3ccccn3)cc2c1C(=O)NC1(C(N)=O)CCOCC1` [Cpd 085, N-(4-carbamoyloxan-4-yl)-2-methyl-5-[(pyridin-2-yl)methoxy]-2H-indazole-3-carboxamide], the IC50 lay in the range of 1 to 20 µM.

`Cn1nc2ccc(OCc3ccccn3)cc2c1C(=O)NC1(CO)CCC1` [Cpd 086, N-[1-(hydroxymethyl)cyclobutyl]-2-methyl-5-[(pyridin-2-yl)methoxy]-2H-indazole-3-carboxamide] had an IC50 of 1 to 20 µM.

Take `Cn1nc2ccc(OCc3cccnc3C(F)(F)F)cc2c1C(=O)NC1(C(N)=O)COC1` [Cpd 087, N-(3-carbamoyloxetan-3-yl)-2-methyl-5-{[2-(trifluoromethyl)pyridin-3-yl]methoxy}-2H-indazole-3-carboxamide]: the IC50 was 1 to 20 µM.

`CN1CC(NC(=O)c2c3cc(OCc4ccnn4C)ccc3nn2C)C(F)(F)C1` (stereo not drawn) [Cpd 088, N-(4,4-difluoro-1-methylpyrrolidin-3-yl)-2-methyl-5-[(1-methyl-1H-pyrazol-5-yl)methoxy]-2H-indazole-3-carboxamide]: the IC50 was above 20 µM.

For the compound `Cc1ncsc1COc1ccc2nn(C)c(C(=O)NCc3cccc(O)n3)c2c1` [Cpd 089, N-[(6-hydroxypyridin-2-yl)methyl]-2-methyl-5-[(4-methyl-1,3-thiazol-5-yl)methoxy]-2H-indazole-3-carboxamide], the IC50 is below 1 µM.

Compound `Cn1nc2ccc(OCc3cccnc3C(F)(F)F)cc2c1C(=O)NC1CCN(CCO)C1=O` (stereo not drawn) [Cpd 090, N-[1-(2-hydroxyethyl)-2-oxopyrrolidin-3-yl]-2-methyl-5-{[2-(trifluoromethyl)pyridin-3-yl]methoxy}-2H-indazole-3-carboxamide] had an IC50 of 1 to 20 µM.

With `Cn1nc2ccc(OCc3ccccc3)cc2c1C(=O)NC(CO)C(F)(F)F` (stereo not drawn) [Cpd 091, 5-(benzyloxy)-2-methyl-N-(1,1,1-trifluoro-3-hydroxypropan-2-yl)-2H-indazole-3-carboxamide], the IC50 is 1 to 20 µM.

`CN1CCC(NC(=O)c2c3cc(OCc4ccccc4)ccc3nn2C)C1` (stereo not drawn) [Cpd 092, 5-(benzyloxy)-2-methyl-N-(1-methylpyrrolidin-3-yl)-2H-indazole-3-carboxamide] came in with an IC50 of 1 to 20 µM.

Turning to `CN1CCC(NC(=O)c2c3cc(OCc4ccccc4F)ccc3nn2C)CC1` [Cpd 093, 5-[(2-fluorophenyl)methoxy]-2-methyl-N-(1-methylpiperidin-4-yl)-2H-indazole-3-carboxamide], the IC50 lay within 1 to 20 µM.

Regarding `Cn1nc2ccc(OCc3ccccc3F)cc2c1C(=O)NC1(CO)CCC1` [Cpd 094, 5-[(2-fluorophenyl)methoxy]-N-[1-(hydroxymethyl)cyclobutyl]-2-methyl-2H-indazole-3-carboxamide], the IC50 was in the range of 1 to 20 µM.

In the case of `Cn1nc2ccc(OCc3ccccc3F)cc2c1C(=O)NC1(CO)CC1` [Cpd 095, 5-[(2-fluorophenyl)methoxy]-N-[1-(hydroxymethyl)cyclopropyl]-2-methyl-2H-indazole-3-carboxamide], the IC50 is 1 to 20 µM.

`Cn1nc2ccc(OCc3ccccc3F)cc2c1C(=O)NC1(CO)CCOCC1` [Cpd 096, 5-[(2-fluorophenyl)methoxy]-N-[4-(hydroxymethyl)oxan-4-yl]-2-methyl-2H-indazole-3-carboxamide] yielded an IC50 of 1 to 20 µM.

For the compound `Cn1nc2ccc(OCc3ccccc3F)cc2c1C(=O)NC1(C(N)=O)CCOCC1` [Cpd 097, N-(4-carbamoyloxan-4-yl)-5-[(2-fluorophenyl)methoxy]-2-methyl-2H-indazole-3-carboxamide], the IC50 is below 1 µM.

For `C[C@@H](NC(=O)c1c2cc(OCc3ccccc3F)ccc2nn1C)C(N)=O` [Cpd 098, (2R)-2-({5-[(2-fluorophenyl)methoxy]-2-methyl-2H-indazol-3-yl}formamido)propanamide], the IC50 lay within 1 to 20 µM.

With `C[C@H](NC(=O)c1c2cc(OCc3ccccc3F)ccc2nn1C)C(N)=O` [Cpd 099, (2S)-2-({5-[(2-fluorophenyl)methoxy]-2-methyl-2H-indazol-3-yl}formamido)propanamide], the IC50 is below 1 µM.

Regarding `Cn1nc2ccc(OCc3ccccn3)cc2c1C(=O)NC1(CO)COC1` [Cpd 100, N-[3-(hydroxymethyl)oxetan-3-yl]-2-methyl-5-[(pyridin-2-yl)methoxy]-2H-indazole-3-carboxamide], the IC50 was 1 to 20 µM.

Take `Cc1ncsc1COc1ccc2nn(C)c(C(=O)N[C@@H](C)C(N)=O)c2c1` [Cpd 101, (2S)-2-({2-methyl-5-[(4-methyl-1,3-thiazol-5-yl)methoxy]-2H-indazol-3-yl}formamido)propanamide]: the IC50 was in the range of 1 to 20 µM.

The compound `Cn1nc2ccc(OCc3ccccn3)cc2c1C(=O)NC1CCOCC1` [Cpd 102, 2-methyl-N-(oxan-4-yl)-5-[(pyridin-2-yl)methoxy]-2H-indazole-3-carboxamide] registered an IC50 above 20 µM.

Take `Cc1ncc(COc2ccc3nn(C)c(C(=O)NC(C)(C)C(N)=O)c3c2)s1` [Cpd 103, 2-methyl-2-({2-methyl-5-[(2-methyl-1,3-thiazol-5-yl)methoxy]-2H-indazol-3-yl}formamido)propanamide]: the IC50 lay in the range of 1 to 20 µM.
